Data as given in patent US20210005278A1, “SYSTEMS AND METHODS FOR PREDICTIVE NETWORK MODELING FOR COMPUTATIONAL SYSTEMS, BIOLOGY AND DRUG TARGET DISCOVERY” (ARIZONA BOARD OF REGENTS ON BEHALF OF THE UNIVERSITY OF …, priority 2018, published 2021).
Entries after “also recorded” stand apart in the source; their conditions may differ.

How the values were obtained:
human SKMCs (HMCL-7304) = assay: Growth assay in human SKMCs (crystal violet); format: cell-based; details: 12 to 14 days, 10 nM-10 uM
Experimental: (§1) After the treatment, the cells were fixed in cold methanol for 15 minutes and stained with crystal violet for 10 minutes. Dye excess was washed with water and pictures taken immediately afterwards.

iPSC lines = assay: HMGCR inhibition in iPSC lines, RNA-seq differential expression; format: cell-based, human; details: 1 uM, 12 h
Experimental: Previous efforts have validated predictive networks through similar approaches.
For the expression residuals used for the co-expression and predictive network analyses, 2 analysis streams were adopted: one where there was use of all samples without adjusting for patient ID (AS) and one where there was an averaging of residuals per patient (ApP). Differentially expressed genes were determined using a linear model, as implemented in the 1mFit function from the limma package v3.18.13 in R. Statistical significance was assessed using a cut-off of 0.05 on FDR adjusted p-values.
iPSCs from 6 IS and 6 IR individuals were maintained in feeder-free conditions using mTesr1 (Stem Cell technologies, Inc) supplemented with 1 mM L-Glutamine, 1 mM Penicillin-Streptomycin, 0.1 μ/ml Fungizone.) on 5% matrigel coated 6-well TC plates. For passaging, cells were washed once with PBS and treated with pre-warmed 1 mM EDTA (Sigma), incubated at 37 degrees for 1-5 minutes, and resuspended in fresh mTesr1 medium 2 μM Thiazovivin (Millipore). After 12 hours incubation in Thiazovivin, medium was changed daily with fresh mTesr1. […] Cells were washed once in PBS and harvested for RNA extraction using PureLInk RNA mini kit (Thermo Fisher Scientific). Total RNA was quantified using a Nanodrop (Thermo Scientific). RNA samples with a A260/280 ratio <1.8 or >2.3 were excluded from further processing and the RNA was sequenced using the Illumina HiSeq 2500 system.

human SGBS preadipocytes = assay: Growth assay in human SGBS preadipocytes (crystal violet); format: cell-based; details: 12 to 14 days, 10 nM-10 uM
Experimental: as §1

[1] = tested on: human adipocytes (differentiated SGBS cells); assay: Insulin mediated glucose uptake assay in mature human adipocytes (differentiated SGBS); format: cell-based; details: 24 hours pretreatment 10 nM-10 uM, 100 nM insulin stimulation
Experimental: For adipogenic differentiation SGBS cells were grown to confluence and subjected to a two-step differentiation process. […] Afterwards, cells were exposed to DMEM/F12 supplemented with 0.01 mg/mL of transferrin, […] of insulin, 100 nM cortisol, and 0.2 nM 3,3′,5-Triiodo-L-thyronine for additional 12 days. HMCL-7304 cells were differentiated in presence of SKMC differentiation medium (PromoCell) for 4-5 days before glucose uptake was performed. […] After the preincubation, the cells were starved for 2 hours prior to 30 minutes of 100 nM insulin stimulation at 37 degrees. […] The cells were then washed with PBS, harvested in 300 uL of M-PER lysis buffer (ThermoFisher), and then added to scintillation vials containing 4.75 mL of scintillation fluid (Perk Elmer). Radioactive counts were determined with a scintillation counter (Model ID: Beckman LS6500). Excess samples were subjected to BCA assay for protein quantification and normalization of radioactive counts. All samples were represented as fold change compared to the unstimulated (no insulin) condition.

SGBS cells = assay: Adipogenic differentiation assay (Oil Red O) in SGBS cells; format: cell-based, human; details: inhibitor added at day 0 of differentiation, 10 nM-10 uM
Experimental: For adipogenic differentiation SGBS cells were grown to confluence and subjected to a two-step differentiation process. […] Afterwards, cells were exposed to DMEM/F12 supplemented with 0.01 mg/mL of transferrin, […] of insulin, 100 nM cortisol, and 0.2 nM 3,3′,5-Triiodo-L-thyronine for additional 12 days. HMCL-7304 cells were differentiated in presence of SKMC differentiation medium (PromoCell) for 4-5 days before glucose uptake was performed. […] Differentiation quantification was performed with Oil Red 0. Differentiated SGBS cells were fixed with 10% formalin for 10 minutes at room temperature. After washing with 60% isopropanol, samples were incubated in Oil Red 0 (Sigma-Aldrich) for 10 minutes at room temperature. Oil Red 0 was eluted with 100% isopropanol for 10 minutes. The solution was then transferred into a 96-well plate and absorbance measured at 500nm.

| SMILES | cell proliferation in SKMCs (human SKMCs (HMCL-7304)) | number of DE genes, treated vs untreated samples (iPSC lines; IR iPSC group only) | number of DE genes, treated vs untreated samples (iPSC lines; IS iPSC group only) | number of DE genes, treated vs untreated samples (iPSC lines; all iPSC lines (6 IR, 6 IS)) | preadipocyte growth (human SGBS preadipocytes) | insulin mediated glucose uptake [1] | differentiation efficiency (adipogenesis, Oil Red O absorbance at 500 nm) (SGBS cells) |
| --- | --- | --- | --- | --- | --- | --- | --- |
| CC(C)c1c(C(=O)Nc2ccccc2)c(-c2ccccc2)c(-c2ccc(F)cc2)n1CC[C@@H](O)C[C@@H](O)CC(=O)O [atorvastatin] | inhibits; also recorded: affected | 785 | 711 | 3205 | detectable decrease | – | – |
| CN(C/C=C/C#CC(C)(C)C)Cc1cccc2ccccc12 [terbinafine] | only a significant effect on glucose uptake | – | – | – | only HMGCR inhibition demonstrates a detectable decrease | decrease insulin mediated glucose uptake | only HMGCR inhibition demonstrates a detectable decrease |
| NCCCC(O)(P(=O)(O)O)P(=O)(O)O [alendronate] | only a significant effect on glucose uptake | – | – | – | only HMGCR inhibition demonstrates a detectable decrease | – | – |
